Results published in patent US7960377B2 (priority 2008, dated 2011).

Legend:
rat CB2 receptor = target: T1, rat CB2 receptor (Rattus norvegicus, UniProt Q9QZN9); test: cell-based; type: cell-based
T1 sequence (Q9QZN9 1-360): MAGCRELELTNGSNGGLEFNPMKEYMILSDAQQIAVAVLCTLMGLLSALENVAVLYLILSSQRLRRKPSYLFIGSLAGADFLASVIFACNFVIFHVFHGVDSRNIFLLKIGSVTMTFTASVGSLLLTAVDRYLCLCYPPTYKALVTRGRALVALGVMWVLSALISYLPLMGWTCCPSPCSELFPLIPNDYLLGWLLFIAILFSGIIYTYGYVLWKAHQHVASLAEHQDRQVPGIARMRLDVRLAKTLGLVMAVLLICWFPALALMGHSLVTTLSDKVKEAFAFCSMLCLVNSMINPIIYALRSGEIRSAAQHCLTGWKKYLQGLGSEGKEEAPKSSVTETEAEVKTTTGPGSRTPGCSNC

human CB1 receptor = human CB1 receptor (Homo sapiens, UniProt P21554); test: cell-based
Sequence of human CB1 receptor (P21554 whole entry): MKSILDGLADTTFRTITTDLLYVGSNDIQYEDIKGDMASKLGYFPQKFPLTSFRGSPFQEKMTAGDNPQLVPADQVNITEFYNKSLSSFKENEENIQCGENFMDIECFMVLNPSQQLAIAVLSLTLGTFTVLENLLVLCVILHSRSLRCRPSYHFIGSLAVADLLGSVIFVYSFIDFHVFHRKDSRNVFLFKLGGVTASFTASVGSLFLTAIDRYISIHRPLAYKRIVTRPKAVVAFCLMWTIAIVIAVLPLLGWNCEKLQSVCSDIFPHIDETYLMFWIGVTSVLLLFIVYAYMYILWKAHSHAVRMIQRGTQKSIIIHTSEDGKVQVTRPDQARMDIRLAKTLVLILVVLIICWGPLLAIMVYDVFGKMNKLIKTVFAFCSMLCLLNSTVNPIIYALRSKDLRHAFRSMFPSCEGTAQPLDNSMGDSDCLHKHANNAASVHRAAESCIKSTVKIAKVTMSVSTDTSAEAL

| Structure (SMILES) | EC50 (rat CB2 receptor) [nM] | EC50 (human CB1 receptor) [µM] |
| --- | --- | --- |
| CC(C)(C)NC(=O)c1cnc2c(c1)N(S(=O)(=O)N1CCCCC1)CCO2 [Example 2, N-tert-butyl-1-(piperidin-1-ylsulfonyl)-2,3-dihydro-1H-pyrido[2,3-b][1,4]oxazine-7-carboxamide] | ≤ 30 | – |
| CC(C)CNC(=O)c1cnc2c(c1)N(S(=O)(=O)c1ccc(F)cc1)CCO2 [Example 8, 1-(4-fluorophenyl-sulfonyl)-N-isobutyl-2,3-dihydro-1H-pyrido[2,3-b][1,4]oxazine-7-carboxamide] | ≤ 30 | – |
| O=C(NC1CCCC1)c1cnc2c(c1)N(S(=O)(=O)c1ccc(F)cc1)CCO2 [Example 10] | ≤ 30 | – |
| CC(C)(CO)NC(=O)c1cnc2c(c1)N(S(=O)(=O)c1ccc(C(F)(F)F)cc1)CCO2 [Example 39, N-(1-hydroxy-2-methyl-propan-2-yl)-1-(4-(trifluoromethyl)phenylsulf-onyl)-2,3-dihydro-1H-pyrido[2,3-b][1,4]oxazine-7-carboxamide] | ≤ 30 | – |
| CCN(C(=O)c1cnc2c(c1)N(S(=O)(=O)c1ccc(C(F)(F)F)cc1)CCO2)C(C)(C)C [Example 42, N-tert-butyl-N-ethyl-1-(4-(trifluoromethyl)phenylsulf-onyl)-2,3-dihydro-1H-pyrido[2,3-b][1,4]oxazine-7-carboxamide] | ≤ 30 | – |
| CNC(=O)[C@@H](N(C)C(=O)c1cnc2c(c1)N(S(=O)(=O)c1ccc(F)cc1)CCO2)C(C)(C)C [Example 58, (S)-N-(3,3-dimethyl-1-(methylamino)-1-oxobutan-2-yl)-1-(4-fluorophenylsulfonyl)-N-methyl-2,3-dihydro-1H-pyrido[2,3-b][1,4]oxazine-7-carboxamide] | ≤ 30 | – |
| O=C(NC1(CO)CCCC1)c1cnc2c(c1)N(S(=O)(=O)c1ccc(C(F)(F)F)cc1)CCO2 [Example 67, N-(1-(hydroxymethyl)-cyclopentyl)-1-(4-(trifluoromethyl)phenylsulf-onyl)-2,3-dihydro-1H-pyrido[2,3-b][1,4]oxazine-7-carboxamide] | ≤ 30 | – |
| CCC(C)(C)NC(=O)c1cnc2c(c1)N(S(=O)(=O)N(C)C)CCO2 [Example 143, 1-(N,N-dimethyl-sulfamoyl)-N-tert-pentyl-2,3-dihydro-1H-pyrido[2,3-b][1,4]oxazine-7-carboxamide] | – | > 30 |
| CN(C)S(=O)(=O)N1CCOc2ncc(C(=O)NC(C)(C)CO)cc21 [Example 144, 1-(N,N-dimethyl-sulfamoyl)-N-(1-hydroxy-2-methylpropan-2-yl)-2,3-dihydro-1H-pyrido[2,3-b][1,4]oxazine-7-carboxamide] | – | > 30 |
| CN(C)S(=O)(=O)N1CCOc2ncc(C(=O)NC(C)(C)C)cc21 [Example 145, N-tert-butyl-1-(N,N-dimethylsulfamoyl)-2,3-dihydro-1H-pyrido[2,3-b][1,4]oxazine-7-carboxamide] | – | > 30 |
| CC(C)(CN1CCOCC1)NC(=O)c1cnc2c(c1)N(S(=O)(=O)N1CCCCC1)CCO2 [Example 147, N-(2-methyl-1-morpholinopropan-2-yl)-1-(piperidin-1-ylsulfonyl)-2,3-dihydro-1H-pyrido[2,3-b][1,4]oxazine-7-carboxamide] | – | > 30 |
| CCC(C)(C)NC(=O)c1cnc2c(c1)N(S(=O)(=O)N1CCN(C)CC1)CCO2 [Example 175, 1-(4-methylpiperazin-1-ylsulfonyl)-N-tert-pentyl-2,3-dihydro-1H-pyrido[2,3-b][1,4]oxazine-7-carboxamide] | – | > 30 |
| CC(C)(C)NC(=O)c1cnc2c(c1)N(S(=O)(=O)N1CCC(N3CCCC3)CC1)CCO2 [Example 176, N-tert-butyl-1-(4-(pyrrolidin-1-yl)piperidin-1-ylsulfonyl)-2,3-dihydro-1H-pyrido[2,3-b][1,4]oxazine-7-carboxamide] | – | > 30 |
| CC(C)(CO)NC(=O)c1cnc2c(c1)N(S(=O)(=O)NCc1ccccc1)CCO2 [Example 179, 1-(N-benzylsulfamoyl)-N-(1-hydroxy-2-methylpropan-2-yl)-2,3-dihydro-1H-pyrido[2,3-b][1,4]oxazine-7-carboxamide] | – | > 30 |
| CC(C)CNS(=O)(=O)N1CCOc2ncc(C(=O)NC(C)(C)CO)cc21 [Example 181, N-(1-hydroxy-2-methylpropan-2-yl)-1-(N-isobutylsulfamoyl)-2,3-dihydro-1H-pyrido[2,3-b][1,4]oxazine-7-carboxamide] | – | > 30 |
| CC1CN(C(=O)c2cnc3c(c2)N(S(=O)(=O)c2ccc(C(F)(F)F)cc2)CCO3)CC(C)O1 (stereo not shown) [Example 198, (2,6-dimethylmorpholino)(1-(4-(trifluoromethyl)phenylsulf-onyl)-2,3-dihydro-1H-pyrido[2,3-b][1,4]oxazin-7-yl)methanone] | – | > 30 |
| CC1CC(C)CN(C(=O)c2cnc3c(c2)N(S(=O)(=O)c2ccc(C(F)(F)F)cc2)CCO3)C1 (stereo not shown) [Example 200, (3,5-dimethylpiperidin-1-yl)(1-(4-(trifluoromethyl)phenylsulf-onyl)-2,3-dihydro-1H-pyrido[2,3-b][1,4]oxazin-7-yl)methanone] | – | > 30 |
| O=C(OCC1CCCCN1)c1cnc2c(c1)N(S(=O)(=O)c1ccc(C(F)(F)F)cc1)CCO2 (stereo not shown) [Example 202, piperidin-2-ylmethyl 1-(4-(trifluoromethyl)phenylsulfonyl)-2,3-dihydro-1H-pyrido[2,3-b][1,4]oxazine-7-carboxylate] | – | > 30 |
| CNCCOC(=O)c1cnc2c(c1)N(S(=O)(=O)c1ccc(Cl)c(Cl)c1)CCO2 [Example 203, 2-(methylamino)ethyl 1-(3,4-dichlorophenylsulfonyl)-2,3-dihydro-1H-pyrido[2,3-b][1,4]oxazine-7-carboxylate] | – | > 30 |
| CNCC(C)(C)COC(=O)c1cnc2c(c1)N(S(=O)(=O)c1ccc(Cl)c(Cl)c1)CCO2 [Example 204, 2,2-dimethyl-3-(methylamino)propyl 1-(3,4-dichlorophenylsulfonyl)-2,3-dihydro-1H-pyrido[2,3-b][1,4]oxazine-7-carboxylate] | – | > 30 |
| O=C(c1noc(-c2cnc3c(c2)N(S(=O)(=O)c2ccc(F)cc2)CCO3)n1)N1CCOCC1 [Example 215, (5-(1-(4-fluorophenyl-sulfonyl)-2,3-dihydro-1H-pyrido[2,3-b][1,4]oxazin-7-yl)-1,2,4-oxadiazol-3-yl)(morpholino)methanone] | – | > 30 |
| O=C(NC1CCCC1)c1cnc2c(c1)N(Cc1ccccc1)C(=O)CO2 [Example 219, 1-benzyl-N-cyclopentyl-2-oxo-2,3-dihydro-1H-pyrido[2,3-b] [1,4]oxazine-7-carboxamide] | – | > 30 |
| CC(C)(C)NC(=O)c1cnc2c(c1)N(Cc1ccccc1)C(=O)CO2 [Example 220, 1-benzyl-N-tert-butyl-2-oxo-2,3-dihydro-1H-pyrido[2,3-b] [1,4]oxazine-7-carboxamide] | – | > 30 |
| O=C(NC1CCCC1)c1cnc2c(c1)N(Cc1ccc(F)cc1)C(=O)CO2 [Example 221, N-cyclopentyl-1-(4-fluorobenzyl)-2-oxo-2,3-dihydro-1H-pyrido[2,3-b] [1,4]oxazine-7-carboxamide] | – | > 30 |
| O=C(NC1CCCC1)c1cnc2c(c1)N(Cc1ccc(Cl)cc1)C(=O)CO2 [Example 222, 1-(4-chlorobenzyl)-N-cyclopentyl-2-oxo-2,3-dihydro-1H-pyrido[2,3-b][1,4]oxazine-7-carboxamide] | – | > 30 |
